The results in this text go back to patent US20230365546A1, “5-SUBSTITUTED INDOLE 3-AMIDE DERIVATIVES, PREPARATION METHOD AND USE THEREOF” (ORIGIANT PHARMACEUTICAL CO., LTD, priority 2020, published 2023).

pIC50: −log10 of the molar value.

For series [1], the system named is RIPK1 autophosphorylation, phosphorylation of RIPK3 and MLKL. The experiment in a line: Regulation of RIPK1 signaling pathway (Western blot). The format is cell-based. Particulars: TNF α/Smac mimetic/Z-VAD-FMK induced, FIG. 4. From the text: TNF α was purchased from PeproTech Inc., Smac mimetic and Z-VAD-FMK was purchased from Selleck Inc., RIPA lysis buffer was purchased from Beyotime Institute of Biotechnology, cocktail was purchased from MedChemExpress (MCE) Limited, PMSF protease inhibitors, sodium dodecylsulfonate SDS, and glycine were purchased from Sigma Inc., acrylamide, tris(hydroxymethyl)aminomethane Tris, ammonium persulfate APS and N,N,N′,N′-tetramethyl ethylenediamine TEMED were purchased from Wuhan Servicebio Technology Co., Ltd.
Extraction of total cellular protein: after the cells were treated by adding the corresponding concentration of Compounds 94 and 46 or blank vehicle to the cell supernatant and induced with TNF α/Smac mimetic/Z-VAD-FMK combination for a certain period of time, the supernatant was discarded, followed by washing three times with pre-cooled PBS or normal saline, then an appropriate volume of RIPA lysis buffer (containing 1% cocktail and 1% PMSF protease inhibitor) was added, the mixture was immediately placed on ice horizontally for lysis of 15 min, then the cell lysis buffer was scraped with a scraper and transferred to a 1.5 ml EP tube, and the cells were disrupted with a sonicator. The tubes were then centrifuged in a low temperature high speed centrifuge (12000 rpm, 15 min) to remove cell debris. […]

In another series the test system is TNF α-induced SIRS. The experiment in a line: TNF α-induced mouse SIRS model. The series is classed as in vivo. How it is done:
TNF α formulated in sterile normal saline was administered at a dose of 500 μg/kg by tail vein injection for modeling. The body temperature of the mice was measured by an infrared electric thermometer. The orally-administrated vehicle was 25% castor oil in ethanol and 75% normal saline. Compounds 94 and 46 and RIPK1 positive compound GSK2982772 were administered orally before modeling with a dose of 40 mg/kg. Body temperature and the survival of mice were recorded every hour and recorded for 24 h and 48 h after 11 h.
This experiment established a TNF α-induced SIRS mouse model to evaluate the in vivo activity of compounds of the present invention. TNF α formulated in sterile normal saline was administered to mice at a dose of 500 μg/kg by tail vein injection for modeling. Since the measurement of rectal temperature would cause mechanical injury to mice and may interfere with the experimental results, an infrared electric thermometer was used to measure the body temperature of mice and the survival condition was observed. Compounds 94 and 46 were administered at a dose of 40 mg/kg once prior to modeling. The Vehicle group was given the corresponding vehicle control.

For the next series, the target named is hERG potassium channel (Homo sapiens (Human), UniProt Q12809). The series is described as follows: cell-based. How it is done:
Stable HEK-hERG cells were washed with DPBS, digested with Trypsin or Tryple solution, resuspended in culture medium, and stored in centrifuge tubes for use.
hERG currents were recorded with a whole-cell patch clamp technique. The cell suspension was placed in a small petri dish and placed on an objective table of an inverted microscope. After attachment, the cells were perfused with extracellular fluid at a recommended flow rate of 1-2 mL/min. The glass microelectrode was pulled in two steps by a microelectrode puller, and the resistance in electrode fill solution was 2-5 MΩ.
After establishing the whole-cell recording mode, the clamping potential was kept at −80 mV. […] This set of pulses was repeated every 15 seconds throughout the experiment.
After the current was stable, continuous extracellular perfusion administration was conducted from low concentration to high concentration. The perfusion was continued from a low concentration until the pharmaceutical effect was stable, and then the perfusion of the next concentration was conducted.
if it was unstable, this concentration data would not be taken.
IC50 values were obtained by fitting the Hill equation (if applicable): […]

The next series concerns DSS-induced colitis. The series is described as follows: DSS-induced mouse IBD model.

Chain of hERG potassium channel (Q12809 whole entry): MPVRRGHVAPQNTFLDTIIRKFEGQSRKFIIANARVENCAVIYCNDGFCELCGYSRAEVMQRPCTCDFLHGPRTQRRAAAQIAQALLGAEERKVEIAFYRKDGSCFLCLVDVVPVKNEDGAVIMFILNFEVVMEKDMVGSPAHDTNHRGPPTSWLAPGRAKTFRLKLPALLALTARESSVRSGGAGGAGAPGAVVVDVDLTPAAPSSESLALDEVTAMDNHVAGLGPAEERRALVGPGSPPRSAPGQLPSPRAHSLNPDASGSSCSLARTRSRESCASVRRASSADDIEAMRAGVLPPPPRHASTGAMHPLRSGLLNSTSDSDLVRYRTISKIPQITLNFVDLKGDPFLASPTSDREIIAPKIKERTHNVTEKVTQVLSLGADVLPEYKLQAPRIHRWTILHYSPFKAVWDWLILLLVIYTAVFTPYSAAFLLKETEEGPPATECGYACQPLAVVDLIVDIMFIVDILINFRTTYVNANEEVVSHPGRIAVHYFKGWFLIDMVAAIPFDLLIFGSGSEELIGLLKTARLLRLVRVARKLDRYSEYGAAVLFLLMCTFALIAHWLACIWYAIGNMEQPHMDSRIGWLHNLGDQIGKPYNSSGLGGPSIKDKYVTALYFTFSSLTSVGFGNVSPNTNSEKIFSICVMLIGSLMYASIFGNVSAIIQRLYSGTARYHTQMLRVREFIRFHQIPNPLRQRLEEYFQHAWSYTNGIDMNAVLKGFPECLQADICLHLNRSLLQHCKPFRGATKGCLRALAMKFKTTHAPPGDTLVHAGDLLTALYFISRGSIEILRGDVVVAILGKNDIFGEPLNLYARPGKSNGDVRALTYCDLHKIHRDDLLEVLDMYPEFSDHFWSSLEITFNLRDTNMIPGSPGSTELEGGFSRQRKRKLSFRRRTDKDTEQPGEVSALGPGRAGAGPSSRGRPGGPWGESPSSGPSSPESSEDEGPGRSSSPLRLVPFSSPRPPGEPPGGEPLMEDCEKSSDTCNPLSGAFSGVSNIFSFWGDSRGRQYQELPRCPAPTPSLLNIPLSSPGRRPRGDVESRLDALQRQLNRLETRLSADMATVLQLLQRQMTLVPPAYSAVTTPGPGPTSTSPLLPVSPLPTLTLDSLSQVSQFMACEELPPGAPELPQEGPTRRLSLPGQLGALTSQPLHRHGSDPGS
Experimental for DSS-induced colitis: Female C57BL/6 mice weighing 17-20 g were used. […] Fresh DSS solution was changed on Days 2, 4, and 6, respectively. […] The Control group was given normal drinking water daily and corresponding vehicles orally starting on day 7. Body weights and survival rates of mice were recorded daily. Survival curves were fitted using Graphpad Prism 5.0 software. Mice (2/group) were sacrificed on day 12 and observed for changes in colon length.

For `C[C@H](NC(=O)c1cn(C)c2ccc(-c3ccn4nc(NC(=O)C5CC5)nc4c3)cc12)c1cccc(F)c1` [Compound 94, (S)-5-(2-(cyclopropanecarboxamido)-[1,2,4]triazolo[1,5-a]pyridin-7-yl)-N-(1-(3-fluorophenyl)ethyl)-1-methyl-1H-indole-3-carboxamide], in series [1], the “Effect on necrotic signaling pathway (RIPK1 autophosphorylation, RIPK3 and MLKL phosphorylation)” value is “affected the phosphorylation of RIPK3 and MLKL downstream of RIPK1 by inhibiting its autophosphorylation”. Further, the Overall mortality result in the series with TNF α-induced SIRS (40 mg/kg oral once before TNF α 500 μg/kg i.v., compared with Vehicle group) is “significantly reduced”. The “Body temperature of mice” value with TNF α-induced SIRS (40 mg/kg oral once before TNF α 500 μg/kg i.v., within 11 h) is listed as “relatively normal”. Also, the “Protective effect compared with positive drug” value in the series with TNF α-induced SIRS (40 mg/kg oral, vs GSK2982772 40 mg/kg) is “better protective effect than positive drug GSK2982772”. On hERG potassium channel, this compound showed a pIC50 of less than 4.52. Also, the “Average inhibitory ratio on hERG potassium channel current” value at hERG potassium channel (human, 30 μM) is given as 3.40%. Besides, the Death of mice entry with DSS-induced colitis (40 mg/kg oral from day 7 after 2.5% DSS) is on record as “no death by 14 days”. Further, the “Body weight of mice” value in the series on DSS-induced colitis (40 mg/kg oral from day 7 after 2.5% DSS, FIG. 6) is recorded as “gradual increase in body weight”. Moreover, the “Colon length of mice” value in the series on DSS-induced colitis (40 mg/kg oral, sacrificed on day 12, FIG. 7) is recorded as “basically equivalent to that of mice in Control group”. Moreover, the “Therapeutic effect compared with positive drug” value in the series with DSS-induced colitis (40 mg/kg oral, vs GSK3145095 40 mg/kg) is recorded as “better therapeutic effect than positive drug GSK3145095”.
